Measured values as given in patent US12239729B2, “TRPV3 agonists for the treatment of skin conditions” (Soricimed Biopharma Inc., priority 2012, dated 2025).
Entries after “also recorded” stand apart in the source; their conditions may differ. Peptide text beside a SMILES is read from it.

Assays:
Assay type in all cases: cell-based, human
HaCaT cells [1] = experiment: Wound healing (scratch gap closure) assay in HaCaT cells (Example 4); details: for Migration Score (gap closure activity): HaCaT wound model
Method: SOR-C13 and SOR-C27 were tested for their ability to promote tissue repair in a human keratinocytes (HaCaT) model of wound healing. In this model, cells are grown to confluency and then a gap is made in the sheet of cells by scratching the surface of the cells. After treating the cells for 24 hours, the closure of the gap, and the state of the cells in terms of polarization and mobility into the gap, are measured as a surrogate for activation of the wound healing response and the proliferation and/or migration of cells involved in tissue repair.
HaCaT cells were plated at 4×10^5 per well in 12-well tissue culture plates in MEGM Bullet Kit (Lonza, Cat. #CC-3150) containing bovine pituitary extracts (BPE), hEGF, insulin, and hydrocortisone. The total volume was 2 ml. About 24 hours later, a gap at the bottom of each well was generated by scratching with a sterile pipette tip. The supernatant was aspirated and cells were washed gently once with PBS. Fresh media (MEGM Bullet Kit, 2 ml) was added after the wash. Cells were treated in duplicates with PBS, or SOR-C13 at 10, 100 and 1000 μM, or SOR-C27 at 10, 100 and 1000 μM, and 100 μM valproic acid. After 24 hours, each well was examined under the microscope to semi-quantify the gap closure by cell migration. A digital camera fixed to the microscope was used to capture images of cells.
Under visual inspection, the wound healing results was scored as: • “−”: minimal cell polarization toward wound, no initiation of cell protrusion into the gap; no change in the wound gap; • “+”: cell polarization toward wound was observed; cell protrusion was observed; cell migration started but gap size is between 75 to 100% of original wound gap; • “++”: cell polarization toward the wound was observed; cell protrusion was observed; cell migration across the gap was observed, and gap size ≤½ of original wound gap; • “+++”: cell polarization toward wound was observed; cell protrusion was observed; cell migration across the gap was observed, and gap size ≤⅓ of original wound gap. Results

HaCaT cells [2] = experiment: Cell death assay in HaCaT cells with SOR-C13 fragments (Example 5); details: 100 and 1000 μM tested, 72 hours
Method: Solutions of each of the peptides listed in Table 2 were made based on formulation weight without correction of purity in PBS at a 100 mM stock concentration. Stock solutions were sterilized by passing through a 0.2 μm syringe filter prewashed with PBS. Stocks of peptides were kept in aliquots at −20° C. during the study. Glycolic acid was made in a 5M stock in PBS and filtered using a 0.2 μm syringe filter and kept at −20° C.
Human immortalized keratinocyte HaCaT cells were cultured as described in Example 3.
HaCaT cells were plated at ˜8×10^5/well in each well of the 12-well tissue culture plates in triplicates in 2 ml culture media. Twenty-four (24) hours post-plating, cells were treated with PBS, or peptide stocks at 100 and 1000 μM (in triplicates), or glycolic acid at 20 mM (single data point). The Cell Death Assay was otherwise performed as described in Example 3.

HaCaT cells [3] = experiment: Cell death assay in HaCaT keratinocytes (Example 3)
Method: In an initial experiment, various concentrations of SOR-C13 and SOR-C27 were tested on human keratinocytes (HaCaT cells) for their ability to cause cell death. The negative control was Phosphate Buffered Saline (PBS) and the positive control was Glycolic Acid (20 mM), a known activator of TRPV3. At the concentrations used (10, 100 and 1000 μM) only the 1000 μM concentration produced a statistically significant increase in cell death over PBS (FIG. 6). […] The two peptides appeared to be indistinguishable in their activity with respect to the number of dead cells
Both peptides were dissolved in PBS at 30 mM concentration at ambient temperature based on the peptide content with a correction factor (SOR-C13 concentration was multiplied by 1.19, while SOR-C27 concentration was multiplied by 1.29). Stock solutions were sterilized by passing through a 0.2 μm syringe filter prewashed with PBS. Stocks of peptides were kept at −20° C. during the study.
Human immortalized keratinocyte HaCaT cells (Cat. #T0020001) were from Addexbio Technologies (San Diego, California, USA). In general, HaCaT cells were cultured in 37° C. CO2 incubator in DEME with 1.0 g/L glucose (Lonza, Cat #12-707F) with 10% FBS. Glutamine (2 mM), penicillin (100 I.U.) and streptomycin (100 μg/ml) were added to the media. Cells were sub-cultured twice per week using Trypsin-0.25% EDTA to detach cells.
HaCaT cells were plated at ˜8×10^5/well in each well of the 12-well tissue culture plates in triplicates in 2 ml culture media. Twenty-four (24) hours post-plating, cells were treated with PBS, or SOR-C13 at 10, 100 and 1000 μM, or SOR-C27 at 10, 100 and 1000 μM, or glycolic acid at 20 mM.
At 72 hours post-treatment, the incubation was terminated and supernatant was collected. Attached cells were washed with 2 ml PBS, and trypsinized. Suspension of cells was combined with supernatant and spun at 1000 g for 5 minutes. The cell pellet was then resuspended in 100 μl PBS for cell counting using trypan blue exclusion.
Student's t-test was used to compare the group treated with a test article vs. the group treated with PBS. Standard errors of mean (SEM) were used to represent variation of data.

HaCaT cells [4] = experiment: Wound healing assay in HaCaT cells with SOR-C13 fragments (Example 5); details: 24 hours
Method: HaCaT cells were plated at 1.6×10^5 per well in 24-well tissue culture plates in 1 ml of DMEM low glucose medium with 10% FBS. After 3 days, when the cells in each well were ˜100% confluent, a gap at the bottom of each well was generated by scratching with a sterile pipette tip. Supernatant was aspirated and cells were washed gently once with PBS. Fresh media (MEGM Bullet Kit, (Lonza, Cat. #CC-3150) containing bovine pituitary extracts (BPE), hEGF, insulin, and hydrocortisone was added after the wash with peptides. After 24 hours, cells were fixed with 2% paraformaldehyde with 15-minute incubation. Fixed cells were rinsed with PBS. Cells in each well were then examined under the microscope to semi-quantify the gap closure by cell migration. A digital camera fixed to the microscope was used to capture images of cells. The width of gap was measured by a ruler semi-quantitatively on the image. Under visual inspection, the wound healing results were also scored as “−”; “+”; “++”; or “+++” using the same criteria as set out in Example 4.
The effect of the peptides on tissue repair was determined using a wound healing assay that measures the migration of HaCaT cells. Gap size prior to and after treatment was semi-quantified by measuring the size of each gap on a digital photograph of the cells.

CC(C)C[C@H](NC(=O)[C@H](Cc1ccccc1)NC(=O)[C@H](CCC(=O)O)NC(=O)[C@@H](N)CCCCN)C(=O)N[C@@H](Cc1cnc[nH]1)C(=O)N1CCC[C@H]1C(=O)N[C@@H](CO)C(=O)N[C@@H](CCCCN)C(=O)N[C@H](C(=O)N[C@@H](CC(=O)O)C(=O)N[C@@H](CC(C)C)C(=O)N1CCC[C@H]1C(=O)N[C@@H](CCCNC(=N)N)C(=O)O)C(C)C [SOR-C13, KEFLHPSKVDLPR] (H-KEFLHPSKVDLPR-OH)
effect on migration of HaCaT cells through the scratch (words) (HaCaT cells [1]; 10 μM, 24 hours): little difference compared to PBS treatment
Migration Score (gap closure activity) (HaCaT cells [1]; 10 uM, 24 hours): + (cell polarization toward wound was observed; cell protrusion was observed; cell migration started but gap size is between 75 to 100% of original wound gap)
effect on migration of HaCaT cells through the scratch (words) (HaCaT cells [1]; 100 μM, 24 hours): clearly had an effect to induce cell migration
Migration Score (gap closure activity) (HaCaT cells [1]; 100 uM, 24 hours): ++ (cell polarization toward the wound was observed; cell protrusion was observed; cell migration across the gap was observed, and gap size ≤½ of original wound gap)
effect on migration of HaCaT cells through the scratch (words) (HaCaT cells [1]; 1000 μM, 24 hours): dramatically closed
Migration Score (gap closure activity) (HaCaT cells [1]; 1000 uM, 24 hours): +++ (cell polarization toward wound was observed; cell protrusion was observed; cell migration across the gap was observed, and gap size ≤⅓ of original wound gap)
effect on migration of HaCaT cells over the tested concentrations (HaCaT cells [1]; 10, 100, 1000 μM, 24 hours): promote tissue repair in a dose responsive manner; also recorded: dose-dependent effect on promoting the migration; also recorded: induced migration of HaCaT cells in a dose-dependent manner
concentrations at which wound healing of HaCaT cells was promoted (HaCaT cells [1]; 24-hour incubation): ≥ 100 µM
induction of cell death (words) (HaCaT cells [2]): no significant effect to induce cell death; also recorded: no increase in cell death above the PBS treatment
increase in cell death compared to PBS treatment (HaCaT cells [3]; 1 mM, 72-hour incubation): ~2 fold
induction of cell death compared to PBS (HaCaT cells [3]; 1 mM, 72 hours, p<0.05): significantly induced cell death
number of dead cells (HaCaT cells [3]; 1 mM, 72 hours, trypan blue exclusion): ~2.2×10^4 /well
induction of cell death compared to PBS (HaCaT cells [3]; 10 or 100 μM, 72 hours): no significant difference in the numbers of dead cells; also recorded: did not have a significant effect
wound healing response, gap closure (HaCaT cells [4]; 1000 μM): no response
concentration dependence of wound healing response / gap closure (HaCaT cells [4]; 10, 100 and 1000 μM): lower concentrations of SOR-C13 are more effective than higher concentrations; also recorded: lower concentrations are more effect than higher concentrations
wound healing response, gap closure (HaCaT cells [4]; two lowest concentrations (10 and 100 μM)): very good response
